From ChEMBL document CHEMBL1126956, “Synthesis and biological evaluation of cholecystokinin analogs in which the Asp-Phe-NH2 moiety has been replaced by a 3-amino-7-phenylheptanoic acid or a 3-amino-6-(phenyloxy)hexanoic acid” (J Med Chem, 1993)
Where a SMILES comes first, the peptide text is derived from it. [ ]: non-standard residue; d: D form. The star is where a group is joined. sY = N[C@@H](Cc1ccc(OS(=O)(=O)O)cc1)C(=O)O; NHPhenethyl = c1ccc(CCN*)cc1; OCH2CH2Ph = c1ccc(CCO*)cc1; Nle = CCCC[C@H](N)C(=O)O; Boc = CC(C)(C)OC(=O)*

Tests used:
[1] = biological target: T1, Gastrin/cholecystokinin type B receptor (Homo sapiens, UniProt P32239); assay: Inhibition of [125I]BH-CCK- binding to cholecystokinin type B receptor from jurkat Tcells; type: cell-based
T1 sequence (P32239 whole entry): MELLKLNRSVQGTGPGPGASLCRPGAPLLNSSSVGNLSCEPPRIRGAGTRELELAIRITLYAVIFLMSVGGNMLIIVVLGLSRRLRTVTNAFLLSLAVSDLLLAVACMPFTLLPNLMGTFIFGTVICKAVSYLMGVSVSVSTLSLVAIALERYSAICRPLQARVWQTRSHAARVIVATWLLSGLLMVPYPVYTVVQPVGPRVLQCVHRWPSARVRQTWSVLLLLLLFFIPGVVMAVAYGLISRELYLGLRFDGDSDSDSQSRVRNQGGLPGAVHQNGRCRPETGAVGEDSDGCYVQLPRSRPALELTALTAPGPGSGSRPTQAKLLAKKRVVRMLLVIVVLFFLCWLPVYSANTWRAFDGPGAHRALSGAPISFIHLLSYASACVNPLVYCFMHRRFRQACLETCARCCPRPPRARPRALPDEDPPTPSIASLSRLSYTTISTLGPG

[2] = biological target: Cholecystokinin receptor type A (Rattus norvegicus) (UniProt P30551); assay: Inhibition of [125I]BH-CCK- binding to peripheral cholecystokinin type A receptor from rat pancreatic acini
[3] = biological target: Gastrin/cholecystokinin type B receptor (Cavia porcellus); assay: Inhibition of [125I]BH-CCK- binding to cholecystokinin type B receptor from guinea pig brain membranes

Row | Compound | IC50 [1] [nM] | IC50 [2] [nM] | IC50 [3] [nM]
1 | CCCC[C@H](NC(=O)[C@@H](Cc1c[nH]c2ccccc12)NC(=O)CNC(=O)[C@H](CCSC)NC(=O)[C@H](Cc1ccc(OS(=O)(=O)O)cc1)NC(=O)OC(C)(C)C)C(=O)N[C@@H](CC(=O)O)C(=O)OCCc1ccccc1 | 210 | – | –
2 | CCCC[C@H](NC(=O)[C@H](Cc1ccc(OS(=O)(=O)O)cc1)NC(=O)OC(C)(C)C)C(=O)NCC(=O)N[C@@H](Cc1c[nH]c2ccccc12)C(=O)N[C@@H](CCCC)C(=O)N[C@@H](CC(=O)O)C(=O)OCCc1ccccc1 (Boc-[sY][Nle]GW[Nle]D-OCH2CH2Ph) | 2 | 3 | –
3 | CCCC[C@H](NC(=O)[C@H](Cc1ccc(OS(=O)(=O)O)cc1)NC(=O)OC(C)(C)C)C(=O)NCC(=O)N[C@@H](Cc1c[nH]c2ccccc12)C(=O)N[C@@H](CCCC)C(=O)N[C@@H](CC(=O)O)C(=O)NCCc1ccccc1 (Boc-[sY][Nle]GW[Nle]D-NHPhenethyl) | 13 | 30 | 10
